Molecules are shown by their SMILES. Bounds are passed on as bounds.

Series [1] relates to full length SMN2 minigene mRNA containing SMN2 exon 7 (SMN2-A minigene). Put plainly: SMN2 minigene mRNA splicing RT-qPCR assay in cultured cells. The class given is cell-based, human. As to conditions: Homo sapiens, HEK293-H; HEK293H cells stably transfected with SMN2-A minigene, 24 hours, 7-point concentration curve; concentration giving 1.5-fold SMN2 full length mRNA vs vehicle; read-out: EC1.5x for production of full length SMN2 mRNA. Here is the method: SMN2 Minigene mRNA Splicing RT-qPCR Assay in Cultured Cells
The reverse transcription-quantitative PCR-based (RT-qPCR) assay is used to quantify the level of the full length SMN2 minigene mRNA containing SMN2 exon 7 in a HEK293H cell line stably transfected with said minigene and treated with a test compound.
Protocol. HEK293H cells stably transfected with the SMN2-A minigene construct described above (10,000 cells/well) are seeded in 200 μL of cell culture medium (DMEM plus 10% FBS, with 200 μg/mL hygromycin) in 96-well flat-bottom plates and the plate is immediately swirled to ensure proper dispersal of cells, forming an even monolayer of cells. Cells are allowed to attach for at least 4-6 hours. Test compounds are serially diluted 3.16-fold in 100% DMSO to generate a 7-point concentration curve. A solution of test compound (1 μL, 200× in DMSO) is added to each cell-containing well and the plate is incubated for 24 hours in a cell culture incubator (37° C., 5% CO2, 100% relative humidity). Two replicates are prepared for each test compound concentration. The cells are then lysed in Cells-To-Ct lysis buffer and the lysate is stored at −80° C.
Primer SMN Forward A (SEQ ID NO. 1) hybridizes to a nucleotide sequence in exon 7 (nucleotide 22 to nucleotide 40), primer SMN Reverse A (SEQ ID NO. 2) hybridizes to a nucleotide sequence in the coding sequence of Firefly luciferase, SMN Probe A (SEQ ID NO. 3) hybridizes to a nucleotide sequence in exon 7 (nucleotide 50 to nucleotide 54) and exon 8 (nucleotide 1 to nucleotide 21). The combination of these three oligonucleotides detects only SMN1 or SMN2 minigenes (RT-qPCR) and will not detect endogenous SMN1 or SMN2 genes.
The SMN forward and reverse primers are used at final concentrations of 0.4 μM. The SMN probe is used at a final concentration of 0.15 μM. The GAPDH primers are used at final concentrations of 0.2 μM and the probe at 0.15 μM.
The SMN2-minigene GAPDH mix (15 μL total volume) is prepared by combining 7.5 μL of 2×RT-PCR buffer, 0.4 μL of 25×RT-PCR enzyme mix, 0.75 μL of 20×GAPDH primer-probe mix, 4.0075 μL of water, 2 μL of 10-fold diluted cell lysate, 0.06 μL of 100 μM SMN forward primer, 0.06 μL of 100 μM SMN reverse primer, and 0.225 μL of 100 μM SMN probe.
PCR is carried out at the following temperatures for the indicated time: Step 1: 48° C. (15 min); Step 2: 95° C. (10 min); Step 3: 95° C. (15 sec); Step 4: 60° C. (1 min); then repeat Steps 3 and 4 for a total of 40 cycles.
Each reaction mixture contains both SMN2-A minigene and GAPDH primers/probe sets (multiplex design), allowing simultaneous measurement of the levels of two transcripts.
Two SMN spliced products are generated from the SMN2 minigene. The first spliced product containing exon 7, corresponding to SMN2 full length mRNA, is referred to herein using the term “SMN2 minigene FL.” The second spliced product lacking exon 7 is referred to herein using the term “SMN2 minigene Δ7.”
The increase of SMN2 minigene FL mRNA relative to that in cells treated with vehicle control is determined from real-time PCR data using a modified ΔΔCt method (as described in Livak and Schmittgen, Methods, 2001, 25:402-8). The amplification efficiency (E) is calculated from the slope of the amplification curve for SMN2 minigene FL and GAPDH mRNA individually. The abundance of SMN2 minigene FL and GAPDH mRNA are then calculated as (1+E)^−Ct, where Ct is the threshold value for each amplicon. The abundance of SMN2 minigene FL is normalized to GAPDH abundance. The normalized SMN2 minigene FL abundance from test compound-treated samples is then divided by normalized SMN2 minigene FL abundance from vehicle-treated cells to determine the level of SMN2 FL mRNA relative to vehicle control. […]

The next series relates to Smn protein. Put plainly: Smn protein assay (Smn HTRF) in cultured cells. In kind it is cell-based, human. As to conditions: Homo sapiens, Fibroblast, GM03813 SMA Type 1 patient fibroblasts, 48 hours, HTRF; for maximal fold induction: 7-point concentration data, relative to vehicle, read-out: maximum fold (Fold) increase of Smn protein; for EC (1.5-fold): concentration producing 1.5 times Smn protein vs DMSO vehicle, read-out: EC1.5x for Smn protein expression. Here is the method: Smn Protein Assay in Cultured Cells
The Smn HTRF (homogeneous time resolved fluorescence) assay is used to quantify the level of Smn protein in SMA patient fibroblast cells treated with test compounds.
Protocol. Cells are thawed and cultured in DMEM-10% FBS for 72 hours. Cells are trypsinized, counted and re-suspended to a concentration of 25,000 cells/mL in DMEM-10% FBS. The cell suspension is plated at 5,000 cells per well in a 96 well microtiter plate and incubated for 3 to 5 hours. […] Test compounds are serially diluted 3.16-fold in 100% DMSO to generate a 7-point concentration curve. 1 μL of test compound solution is transferred to cell-containing wells and cells are incubated for 48 hours in a cell culture incubator (37° C., 5% CO2, 100% relateive humidity). Triplicate samples are set up for each test compound concentration. After 48 hours, the supernatant is removed from the wells and 25 μL of the RIPA lysis buffer, containing protease inhibitors, is added to the wells and incubated with shaking at room temperature for 1 hour. 25 μL of the diluent is added and then 35 μL of the resulting lysate is transferred to a 384-well plate, where each well contains 5 μL of the antibody solution (1:100 dilution of anti-SMN d2 and anti-SMN kryptate in SMN reconstitution buffer). The plate is centrifuged for 1 minute to bring the solution to the bottom of the wells, then incubated overnight at room temperature. Fluorescence for each well of the plate at 665 nm and 620 nm is measured on an EnVision multilabel plate reader (Perkin-Elmer).
The normalized fluorescence signal is calculated for each sample, Blank and vehicle control well by dividing the signal at 665 nm by the signal at 620 nm. Normalizing the signal accounts for possible fluorescence quenching due to the matrix effect of the lysate. The AF value (a measurement of Smn protein abundance as a percent value) for each sample well is calculated by subtracting the normalized average fluorescence for the Blank control wells from the normalized fluorescence for each sample well, then dividing this difference by the normalized average fluorescence for the Blank control wells and multiplying the resulting value by 100. The ΔF value for each sample well represents the Smn protein abundance from test compound-treated samples. The ΔF value for each sample well is divided by the ΔF value for the vehicle control wells to calculate the fold increase in Smn protein abundance relative to the vehicle control.
For compounds of Formula (I) or a form thereof disclosed herein, Table 9 provides the EC1.5x for Smn protein expression that was obtained from the 7-point concentration data generated for each test compound according to the procedure of Biological Example 7. The term “EC1.5x for Smn protein expression” is defined as that concentration of test compound that is effective in producing 1.5 times the amount of Smn protein in an SMA patient fibroblast cell compared to the amount produced from the DMSO vehicle control. An EC1.5x for Smn protein expression between >3 μM and ≦10 μM is indicated by one star (*), an EC1.5x between >1 μM and ≦3 μM is indicated by two stars (**), an EC1.5x between >0.3 μM and ≦1 μM is indicated by three stars (***) and an EC1.5x≦0.3 μM is indicated by four stars (****).
For compounds of Formula (I) or a form thereof disclosed herein, Table 10 provides the maximum fold (Fold) increase of Smn protein that was obtained from the 7-point concentration data generated for each test compound according to the procedure of Biological Example 7. A maximum fold increase ≦1.2 is indicated by one star (*), a fold increase between >1.2 and ≦1.35 is indicated by two stars (**), a fold increase between >1.35 and ≦1.5 is indicated by three stars (***), a fold increase between >1.5 and ≦1.65 is indicated by four stars (****) and a fold increase >1.65 is indicated by five stars (*****).
(TR-FRET usually uses a lanthanide donor and a delayed reading to cut background.)

For the compound `O=c1cc(-c2cccnc2)oc2ccc(N3CCNCC3)cc12` [Cpd 1, 6-(piperazin-1-yl)-2-(pyridin-3-yl)-4H-chromen-4-one], the melting point was in the range of 177 to 180 °C. Also, in series [1], the EC (1.5-fold) was in the range of 0.3 to 1 µM. Besides, the maximal fold induction in the series with Smn protein was 1.35 to 1.5.

Take `CN1CCN(c2ccc3oc(-c4cccnc4)cc(=O)c3c2)CC1` [Cpd 2, 6-(4-methylpiperazin-1-yl)-2-(pyridin-3-yl)-4H-chromen-4-one]: the EC (1.5-fold) in series [1] lay within 3 to 30 µM. Moreover, the maximal fold induction with Smn protein lay within 1.2 to 1.35.

`CCN1CCN(c2ccc3oc(-c4cccnc4)cc(=O)c3c2)CC1` [Cpd 3, 6-(4-ethylpiperazin-1-yl)-2-(pyridin-3-yl)-4H-chromen-4-one] registered a melting point of 140 to 142 °C. For the same compound, in series [1], the EC (1.5-fold) lay in the range of 3 to 30 µM. In the series with Smn protein, the maximal fold induction was no more than 1.2.

On to `CC(C)N1CCN(c2ccc3oc(-c4cccnc4)cc(=O)c3c2)CC1` [Cpd 4, 6-[4-(propan-2-yl)piperazin-1-yl]-2-(pyridin-3-yl)-4H-chromen-4-one], for which the melting point fell in the range of 148 to 150 °C. Further, the EC (1.5-fold) in series [1] fell in the range of 3 to 30 µM. Moreover, in the series on Smn protein, the maximal fold induction was no more than 1.2.

For `CN1CCCN(c2ccc3oc(-c4cccnc4)cc(=O)c3c2)CC1` [Cpd 5, 6-(4-methyl-1,4-diazepan-1-yl)-2-(pyridin-3-yl)-4H-chromen-4-one], the melting point is 136 to 138 °C. For the same compound, the EC (1.5-fold) in series [1] is 3 to 30 µM. For the same compound, the maximal fold induction in the series on Smn protein was 1.2 to 1.35.

As for `O=c1cc(-c2cccnc2)oc2ccc(N3CCCNCC3)cc12` [Cpd 6, 6-(1,4-diazepan-1-yl)-2-(pyridin-3-yl)-4H-chromen-4-one], the melting point is 162 to 164 °C. Moreover, in series [1], the EC (1.5-fold) is 3 to 30 µM. Moreover, in the series on Smn protein, the maximal fold induction is no more than 1.2.

`O=c1cc(-c2ccccn2)oc2ccc(N3CCNCC3)cc12` [Cpd 7, 6-(piperazin-1-yl)-2-(pyridin-2-yl)-4H-chromen-4-one] came in with a melting point of 170 to 172 °C. In addition, in series [1], the EC (1.5-fold) was in the range of 0.3 to 1 µM. In the series with Smn protein, the maximal fold induction fell in the range of 1.5 to 1.65 and the EC (1.5-fold) was 3 to 10 µM.

`O=c1cc(-c2cn3ccccc3n2)oc2ccc(N3CCNCC3)cc12` [Cpd 8, 2-(imidazo[1,2-a]pyridin-2-yl)-6-(piperazin-1-yl)-4H-chromen-4-one] had a melting point of 207 to 211 °C. The EC (1.5-fold) in series [1] lay in the range of 0.3 to 1 µM. In the series with Smn protein, the maximal fold induction was 1.5 to 1.65 and the EC (1.5-fold) is 3 to 10 µM.

The compound `C[C@@H]1CN(c2ccc3oc(-c4cccnc4)cc(=O)c3c2)C[C@H](C)N1` [Cpd 9, 6-[(3R,5S)-3,5-dimethylpiperazin-1-yl]-2-(pyridin-3-yl)-4H-chromen-4-one] gave a melting point of 148 to 150 °C. Moreover, in series [1], the EC (1.5-fold) was 1 to 3 µM. Moreover, in the series with Smn protein, the maximal fold induction is 1.5 to 1.65 and the EC (1.5-fold) is 3 to 10 µM.

As to `CC1(C)CN(c2ccc3oc(-c4cccnc4)cc(=O)c3c2)CCN1` [Cpd 10, 6-(3,3-dimethylpiperazin-1-yl)-2-(pyridin-3-yl)-4H-chromen-4-one], the melting point is 140 to 142 °C. The EC (1.5-fold) in series [1] lay within 1 to 3 µM. For the same compound, in the series on Smn protein, the maximal fold induction lay within 1.35 to 1.5.

With `C[C@@H]1CN(c2ccc3oc(-c4cccnc4)cc(=O)c3c2)CCN1` [Cpd 11, 6-[(3R)-3-methylpiperazin-1-yl]-2-(pyridin-3-yl)-4H-chromen-4-one], the melting point is 148 to 150 °C. Also, the EC (1.5-fold) in series [1] lay in the range of 0.3 to 1 µM. Besides, in the series on Smn protein, the maximal fold induction was 1.35 to 1.5 and the EC (1.5-fold) fell in the range of 3 to 10 µM.

As to `CN1CCN(c2ccc3oc(-c4ccccn4)cc(=O)c3c2)CC1` [Cpd 12, 6-(4-methylpiperazin-1-yl)-2-(pyridin-2-yl)-4H-chromen-4-one], the melting point is 150 to 152 °C. Also, the EC (1.5-fold) in series [1] was 3 to 30 µM. The maximal fold induction in the series on Smn protein is no more than 1.2.

In the case of `CCOc1ccc(-c2cc(=O)c3cc(N4C[C@@H](C)N[C@@H](C)C4)ccc3o2)cc1` [Cpd 43, 6-[(3R,5S)-3,5-dimethylpiperazin-1-yl]-2-(4-ethoxyphenyl)-4H-chromen-4-one], the EC (1.5-fold) in series [1] was 1 to 3 µM. In addition, in the series with Smn protein, the maximal fold induction was no more than 1.2.

Regarding `Cc1cn2cc(-c3cc(=O)c4cc(N5CCNCC5)ccc4o3)nc2cn1` [Cpd 72, 2-(6-methylimidazo[1,2-a]pyrazin-2-yl)-6-(piperazin-1-yl)-4H-chromen-4-one], in series [1], the EC (1.5-fold) is no more than 0.1 µM. Further, in the series on Smn protein, the maximal fold induction is greater than 1.65 and the EC (1.5-fold) is no more than 0.3 µM.

In general, melting point refers to the temperature, or range, at which the solid turns liquid.

(Values after US9914722B2, “Compounds for treating spinal muscular atrophy” (PTC Therapeutics Inc., priority 2012, dated 2018).)
